Measured values reported in US20170064958A1, “Active compound combinations having insecticidal properties” (BAYER CROPSCIENCE AKTIENGESELLSCHAFT, priority 2014, published 2017).

Experiments:
Assay type in all cases: in vivo
[1] = system: two spotted spidermite (Tetranychus urticae); assay: Tetranychus urticae - spray test OP-resistant; settings: single active ingredient, French bean leaf disks; for Efficacy in % after 2d: 0.8 g ai/ha, mortality after 2 d
Method: (§1) To produce a suitable preparation of active compound, 1 part by weight of active compound is mixed with the stated amount of solvents and is diluted with water, containing an emulsifier concentration of 1000 ppm, to the desired concentration. To produce a suitable preparation of a spore suspension the spores are diluted with emulsifier containing water to the desired concentration. Further test concentrations are prepared by dilution with emulsifier containing water.
French bean (Phaseolus vulgaris) leaf disks which are heavily infested with all stages of the two spotted spidermite (Tetranychus urticae), are sprayed with a preparation of the active ingredient of the desired concentration.
After the specified period of time, mortality in % is determined 100% means all spider mites have been killed and 0% means none of the spider mites have been killed. The mortality values determined thus are recalculated using the Colby-formula (see sheet 1).

[2] = system: mustard beetle larvae (Phaedon cochleariae); assay: Phaedon cochleariae - spray test; settings: single active ingredient, 0.16 g ai/ha, mortality after 6 d, Chinese cabbage leaf disks
Method: as §1
Chinese cabbage (Brassica pekinensis) leaf disks are sprayed with a preparation of the active ingredient of the desired concentration. Once dry, the leaf disks are infested with mustard beetle larvae (Phaedon cochleariae).
After the specified period of time, mortality in % is determined. 100% means all beetle larvae have been killed and 0% means none of the beetle larvae have been killed. The mortality values determined thus are recalculated using the Colby-formula (see sheet 1).

[3] = system: green peach aphid (Myzus persicae); assay: Myzus persicae - spray test; settings: single active ingredient, 0.8 g ai/ha, mortality after 1 d, Chinese cabbage leaf disks
Method: as §1
Chinese cabbage (Brassica pekinensis) leaf disks infected with all instars of the green peach aphid (Myzus persicae), are sprayed with a preparation of the active ingredient of the desired concentration.
After the specified period of time, mortality in % is determined 100% means all aphids have been killed; 0% means none of the aphids have been killed. The mortality values determined thus are recalculated using the Colby-formula (see sheet 1).

Cc1c(COC(=O)[C@@H]2[C@H](/C=C(\Cl)C(F)(F)F)C2(C)C)cccc1-c1ccccc1 (racemic) [Bifenthrin]
Efficacy in % after 2d [1]: 0%

CC1(C)[C@H](C(=O)O[C@H](C#N)c2cccc(Oc3ccccc3)c2)[C@@H]1/C=C(\Cl)C(F)(F)F (racemic) [Lambda- Cyhalothrin, lambda-Cyhalothrin]
Efficacy in % after 6d [2]: 33%

CC1(C)[C@H](C(=O)O[C@H](C#N)c2cccc(Oc3ccccc3)c2)[C@@H]1C=C(Br)Br [Deltamethrin]
Efficacy in % after 2d [1]: 0%

CC1(C)[C@H](C(=O)O[C@H](C#N)c2cccc(Oc3ccccc3)c2)[C@@H]1/C=C\C(=O)OC(C(F)(F)F)C(F)(F)F [Acrinathrin]
Efficacy in % after 1d [3]: 70% | Efficacy in % after 6d ([1]; 0.16 g ai/ha, mortality after 6 d): 0% | Efficacy in % after 2d [1]: 0%
